One may read the IC50 as the midpoint of a concentration-inhibition curve.

16 molecules from ChEMBL document CHEMBL5331061, “Design, synthesis, and biological evaluation of Wee1 kinase degraders” (Eur J Med Chem, 2022) can be followed below.

Structures are written as SMILES. The source made the active and inactive calls. No cut-off for these calls is given here.

Assay [1] deals with Protein cereblon/Wee1-like protein kinase (Homo sapiens, UniProt P30291+Q96SW2). Nature of the assay: PROTAC activity at CRBN/Wee1 in human MV4-11 cells assessed as residual Wee1 level at IC50 measured after 6 hrs by Western blot analysis (reference value: 100%). The class given is cell-based. (In general: Immunoblotting shows a protein as a band on a membrane.)
Protein cereblon/Wee1-like protein kinase, sequence (P30291 whole entry, looked up): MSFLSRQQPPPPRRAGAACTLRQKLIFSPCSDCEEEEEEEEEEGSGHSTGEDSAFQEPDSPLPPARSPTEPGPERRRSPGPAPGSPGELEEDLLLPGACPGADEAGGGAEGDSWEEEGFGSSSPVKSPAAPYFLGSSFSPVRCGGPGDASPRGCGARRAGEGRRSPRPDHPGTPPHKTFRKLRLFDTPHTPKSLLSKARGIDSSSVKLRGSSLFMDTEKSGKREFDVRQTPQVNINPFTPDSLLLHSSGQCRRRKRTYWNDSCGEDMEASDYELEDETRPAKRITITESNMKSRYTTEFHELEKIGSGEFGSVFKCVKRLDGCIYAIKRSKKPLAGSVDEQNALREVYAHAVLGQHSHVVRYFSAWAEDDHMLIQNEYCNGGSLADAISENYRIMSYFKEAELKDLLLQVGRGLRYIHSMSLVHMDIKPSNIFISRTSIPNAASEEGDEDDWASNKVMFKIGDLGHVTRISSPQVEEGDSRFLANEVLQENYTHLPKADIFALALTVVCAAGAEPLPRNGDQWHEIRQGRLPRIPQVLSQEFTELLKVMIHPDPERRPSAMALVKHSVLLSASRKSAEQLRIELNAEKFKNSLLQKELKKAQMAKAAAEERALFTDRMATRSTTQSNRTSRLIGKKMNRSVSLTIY
Protein cereblon/Wee1-like protein kinase, sequence (Q96SW2 whole entry, looked up): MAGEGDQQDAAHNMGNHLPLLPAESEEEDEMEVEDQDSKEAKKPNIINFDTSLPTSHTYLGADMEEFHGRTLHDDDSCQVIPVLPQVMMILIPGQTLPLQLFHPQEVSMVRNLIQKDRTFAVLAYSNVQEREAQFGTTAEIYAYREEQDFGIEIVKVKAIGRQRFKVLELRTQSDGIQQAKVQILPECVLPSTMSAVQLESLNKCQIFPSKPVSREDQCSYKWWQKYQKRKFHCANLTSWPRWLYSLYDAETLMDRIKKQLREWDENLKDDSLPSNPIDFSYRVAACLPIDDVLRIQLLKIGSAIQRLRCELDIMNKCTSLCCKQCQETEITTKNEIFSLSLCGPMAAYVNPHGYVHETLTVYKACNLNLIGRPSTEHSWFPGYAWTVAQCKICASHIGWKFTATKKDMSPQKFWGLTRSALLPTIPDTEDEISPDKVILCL
Assay [2] deals with MV4-11. Nature of the assay: Antiproliferative activity against human MV4-11 cells assessed as cell growth inhibition measured after 72 hrs by SRB Assay. The conditions noted are these: MV4-11, 72 h.
Assay [3] concerns MV4-11. The assay can be described thus: Effect on PLK1 expression in human MV4-11 cells at IC50 measured after 6 hrs by Western blot analysis. The class given is functional, cell-based.
The test system of the next assay is SUM149PT. Nature of the assay: Antiproliferative activity against human SUM149PT cells assessed as cell growth inhibition measured after 72 hrs by SRB Assay.
The test system of the next assay is A498. Nature of the assay: Antiproliferative activity against human A498 cells assessed as cell growth inhibition measured after 72 hrs by SRB Assay. To be noted: A498, 72 h.
The target of assay [4] is Serine/threonine-protein kinase PLK1 (Homo sapiens, UniProt P53350). The assay can be described thus: Inhibition of PLK1 (unknown origin).
Serine/threonine-protein kinase PLK1, sequence (P53350 whole entry): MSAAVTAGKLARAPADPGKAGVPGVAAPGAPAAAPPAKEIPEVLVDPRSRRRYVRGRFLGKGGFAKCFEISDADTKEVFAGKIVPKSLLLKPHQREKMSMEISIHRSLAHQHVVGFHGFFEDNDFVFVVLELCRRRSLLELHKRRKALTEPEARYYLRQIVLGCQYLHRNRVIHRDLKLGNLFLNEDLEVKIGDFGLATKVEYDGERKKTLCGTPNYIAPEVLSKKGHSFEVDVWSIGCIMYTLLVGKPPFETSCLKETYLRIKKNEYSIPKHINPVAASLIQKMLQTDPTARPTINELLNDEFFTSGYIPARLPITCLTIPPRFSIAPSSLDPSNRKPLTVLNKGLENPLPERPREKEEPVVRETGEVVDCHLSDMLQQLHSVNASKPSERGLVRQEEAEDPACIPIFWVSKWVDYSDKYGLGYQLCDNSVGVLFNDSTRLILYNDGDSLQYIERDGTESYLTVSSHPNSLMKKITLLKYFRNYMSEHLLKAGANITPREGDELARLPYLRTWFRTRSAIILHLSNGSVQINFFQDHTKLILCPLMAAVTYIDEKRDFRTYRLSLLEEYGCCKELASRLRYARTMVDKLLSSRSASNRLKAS

For the molecule `C=CCn1c(=O)c2cnc(Nc3ccc(N4CCN(CC(=O)NCCOCCOCCOCCOCCNc5cccc6c5C(=O)N(C5CCC(=O)NC5=O)C6=O)CC4)cc3)nc2n1-c1cccc(C(C)(C)O)n1` (centres undefined), the Activity in assay [1] was determined as 49%. The IC50 stood at 0.408 µM in the assay on MV4-11 [2], 3.14 µM in the assay with SUM149PT and 5.83 µM in the assay with A498. The result in the assay with MV4-11 [3] was inactive.
In the case of `C=CCn1c(=O)c2cnc(Nc3ccc(N4CCN(CC(=O)NCCOCCOCCOCCOCCOCCOCCOCCNc5cccc6c5C(=O)N(C5CCC(=O)NC5=O)C6=O)CC4)cc3)nc2n1-c1cccc(C(C)(C)O)n1` (centres undefined), the Activity in assay [1] was determined as 21%. The IC50 with MV4-11 [2] is 0.716 µM; in the assay with SUM149PT it was above 10 µM; in assay [4], above 10 µM; in the assay with A498 it was above 10 µM. Also, the outcome with MV4-11 [3] was inactive.
`C=CCn1c(=O)c2cnc(Nc3ccc(N4CCN(CC(=O)NCCCCCNc5cccc6c5C(=O)N(C5CCC(=O)NC5=O)C6=O)CC4)cc3)nc2n1-c1cccc(C(C)(C)O)n1` (centres undefined): in assay [1], the Activity came to 32%. The IC50 with MV4-11 [2] amounted to 0.809 µM; in the assay with SUM149PT it was 2.13 µM; in the assay with A498, 6.87 µM. Also, the outcome in the assay on MV4-11 [3] was inactive.
`C=CCn1c(=O)c2cnc(Nc3ccc(N4CCN(CC(=O)NCCOCCOCCOCCNc5cccc6c5C(=O)N(C5CCC(=O)NC5=O)C6=O)CC4)cc3)nc2n1-c1cccc(C(C)(C)O)n1` (centres undefined): the Activity in assay [1] is 37%. The values for the IC50 with MV4-11 [2], in the assay on SUM149PT and in the assay on A498 were 2.2 µM, above 10 µM and above 10 µM, respectively. Also, the result with MV4-11 [3] was inactive.
Take `C=CCn1c(=O)c2cnc(Nc3ccc(N4CCN(CC(=O)NCCOCCOCCNc5cccc6c5C(=O)N(C5CCC(=O)NC5=O)C6=O)CC4)cc3)nc2n1-c1cccc(C(C)(C)O)n1` (centres undefined): the Activity in assay [1] came out at 21%. The IC50 in the assay on MV4-11 [2] is 1 µM; in the assay on SUM149PT it was 6.04 µM; in assay [4], above 10 µM; in the assay on A498, above 10 µM. Further, the result with MV4-11 [3] was inactive.
For `C=CCn1c(=O)c2cnc(Nc3ccc(N4CCN(CC(=O)NCCOCCOCCOCCOCCOCCOCCNc5cccc6c5C(=O)N(C5CCC(=O)NC5=O)C6=O)CC4)cc3)nc2n1-c1cccc(C(C)(C)O)n1` (centres undefined), in assay [1], the Activity came out at 33%. In addition, the IC50 was 1.13 µM in the assay on MV4-11 [2], above 10 µM in the assay with SUM149PT and above 10 µM in the assay on A498. The result in the assay with MV4-11 [3] was inactive.
As for `C=CCn1c(=O)c2cnc(Nc3ccc(N4CCN(CC(=O)NCCOCCOCCOCCOCCOCCOCCOCCOCCNc5cccc6c5C(=O)N(C5CCC(=O)NC5=O)C6=O)CC4)cc3)nc2n1-c1cccc(C(C)(C)O)n1` (centres undefined), the Activity in assay [1] turned out to be 28%. The IC50 was 0.523 µM in the assay on MV4-11 [2], 8.85 µM with SUM149PT and above 10 µM with A498. Also, the result in the assay on MV4-11 [3] was inactive.
In the case of `C=CCn1c(=O)c2cnc(Nc3ccc(N4CCN(CC(=O)NCCCCNc5cccc6c5C(=O)N(C5CCC(=O)NC5=O)C6=O)CC4)cc3)nc2n1-c1cccc(C(C)(C)O)n1` (centres undefined), the Activity in assay [1] was determined as 21%. The IC50 with MV4-11 [2] was found to be 0.226 µM; in the assay with SUM149PT it was 1.59 µM; in the assay on A498 it was 5.38 µM. The result in the assay with MV4-11 [3] was inactive.
`C=CCn1c(=O)c2cnc(Nc3ccc(N4CCN(CCCCCNc5cccc6c5C(=O)N(C5CCC(=O)NC5=O)C6=O)CC4)cc3)nc2n1-c1cccc(C(C)(C)O)n1` (centres undefined): the Activity in assay [1] stood at 24%. The values for the IC50 in the assay with MV4-11 [2], with SUM149PT and in the assay with A498 were 0.182 µM, 1.26 µM and 1.31 µM, respectively. Further, the outcome with MV4-11 [3] was inactive.
For `C=CCn1c(=O)c2cnc(Nc3ccc(N4CCN(CC(=O)NCCCCC(=O)NCc5ccc(CNc6cccc7c6C(=O)N(C6CCC(=O)NC6=O)C7=O)cc5)CC4)cc3)nc2n1-c1cccc(C(C)(C)O)n1` (centres undefined), in assay [1], the Activity amounted to 27%. The IC50 was 6 µM in the assay on MV4-11 [2], above 10 µM in the assay on SUM149PT, above 10 µM in assay [4] and above 10 µM in the assay with A498. The result in the assay with MV4-11 [3] was inactive.
With `C=CCn1c(=O)c2cnc(Nc3ccc(N4CCN(CC(=O)NCCCCC(=O)NCCNc5cccc6c5C(=O)N(C5CCC(=O)NC5=O)C6=O)CC4)cc3)nc2n1-c1cccc(C(C)(C)O)n1` (centres undefined), the Activity in assay [1] was determined as 22%. Further, the IC50 is 2 µM with MV4-11 [2], above 10 µM in the assay with SUM149PT and above 10 µM in the assay with A498. In addition, in the assay on MV4-11 [3], the outcome was inactive.
As to `C=CCn1c(=O)c2cnc(Nc3ccc(N4CCN(CC(=O)NCCCCC(=O)NCc5ccc(COc6cccc7c6C(=O)N(C6CCC(=O)NC6=O)C7=O)cc5)CC4)cc3)nc2n1-c1cccc(C(C)(C)O)n1` (centres undefined), in assay [1], the Activity came to 45%. The IC50 was 7 µM in the assay on MV4-11 [2], above 10 µM with SUM149PT and above 10 µM with A498. In addition, the outcome in the assay with MV4-11 [3] was inactive.
Consider `C=CCn1c(=O)c2cnc(Nc3ccc(N4CCN(CC(=O)NCCCCC(=O)NCCOc5cccc6c5C(=O)N(C5CCC(=O)NC5=O)C6=O)CC4)cc3)nc2n1-c1cccc(C(C)(C)O)n1` (centres undefined), for which the Activity in assay [1] turned out to be 23%. For the same molecule, the IC50 was 5 µM in the assay with MV4-11 [2], above 10 µM with SUM149PT and above 10 µM in the assay on A498. For the same molecule, in the assay on MV4-11 [3], the outcome was inactive.
`C=CCn1c(=O)c2cnc(Nc3ccc(N4CCN(CC(=O)NCCCNc5cccc6c5C(=O)N(C5CCC(=O)NC5=O)C6=O)CC4)cc3)nc2n1-c1cccc(C(C)(C)O)n1` (centres undefined): the Activity in assay [1] turned out to be 37%. For the same molecule, the figures for the IC50 in the assay on MV4-11 [2], in the assay with SUM149PT and in the assay with A498 were 0.215 µM, 1.55 µM and 7.74 µM, respectively. Also, in the assay on MV4-11 [3], the result was inactive.
Regarding `C=CCn1c(=O)c2cnc(Nc3ccc(N4CCN(CC(=O)NCCOCCOCCOCCOCCOCCNc5cccc6c5C(=O)N(C5CCC(=O)NC5=O)C6=O)CC4)cc3)nc2n1-c1cccc(C(C)(C)O)n1` (centres undefined), the Activity in assay [1] was determined as 26%. In addition, the concentration for half-maximal inhibition (IC50) in the assay with MV4-11 [2] is 2.15 µM; in the assay on SUM149PT it was above 10 µM; in assay [4] it was above 10 µM; with A498 it was 10 µM. Also, the outcome in the assay with MV4-11 [3] was inactive.
Regarding `C=CCn1c(=O)c2cnc(Nc3ccc(N4CCN(CC(=O)NCCCCCCNc5cccc6c5C(=O)N(C5CCC(=O)NC5=O)C6=O)CC4)cc3)nc2n1-c1cccc(C(C)(C)O)n1` (centres undefined), the Activity in assay [1] was 49%. Moreover, the results for the IC50 in the assay on MV4-11 [2], in the assay on SUM149PT and in the assay on A498 were 1.11 µM, 2.81 µM and 6.65 µM, respectively. Moreover, the outcome with MV4-11 [3] was inactive.
